Bridges are numbered along the chain shown (N, C = ends). Where no end group is shown, it is not given here. The star is where a group is joined. Acm = CC(=O)NC*
System: dissociate cultured cortical neurons
Assay: Mobilization of intracellular Ca2+ in dissociate cultured cortical neurons (Fura-2 AM fluorescence)
Type: cell-based, rat
Settings: dissociate and cultured cortical neurons of newborn Sprague-Dawley rats, value ± spread
From the text: Neurons can be isolated from cerebral cortex according to the protocols for postnatal dissociated nuerons as disclosed for example by Huettner, J. E. and Baughman, R. W., Primary Culture of Identified Neurons From the Visual Cortex of Postnatal Rats, Journal of Neurosciences 6; 3044-3060 (1986); Brewer, G. J., Isolation and Culture of Adult Rat Hippocampal Neurons, Journal of Neuroscience Methods, 71:143-155 (1997); and Brailoiu et al., NAADP Potentiates Neurite Outgrowth, Journal of Biological Chemistry (in press), each hereby incorporated by reference. Newborn Sprague-Dawley rates (about 1 day to about 4 days old) were killed by cervical dislocation. Cerebral cortex was removed and quickly immersed in ice-cold phosphate buffer solution. After removal of meninges, tissue was minced into about 1-millimeter blocks, incubated for about 45 minutes at 37° C. in Hanks balanced salt solution without Ca^2+ and Mg^2+ (Invitrogen, 1600 Faraday Avenue, Carlsbad, Calif. 92008) and supplemented with about 200 ug/mL penicillin, 0.1% EDTA and papain 0.15 mg/mL (Sigma-Aldrich, St. Louis, Mo.). In accordance with the procedure disclosed by Brewer, the tissue can be further dissociated by gentle mechanical trituration. […]

30-86 Cys30Acm, Cys34Acm (Cys31-Cys37): HIV-1 Tat residues 30-86, Cys-Acm at 30 and 34, disulfide bridge Cys31-Cys37 (C(Acm)CFHC(Acm)QVCFITKALGISYGRKKRRQRRRAHQNSQTHQASLSKQPTSQPRGDPTGPKE; disulfide 2-8)
[Ca^2+] response: No Response

From US20060275321A1, “Polypeptide antagonists of HIV-1 Tat protein” (Phoenix Pharmaceuticals, Inc., priority 2005, published 2006)
